Measured values: ChEMBL document CHEMBL1201862, “PubChem BioAssay data set” (2004)
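1) Cells in 96-well plates. 2) Compound, 48 h, 5 concentrations. 3) Linear interpolation between surrounding doses. 4) Unreached endpoint = highest concentration. Here, GI50 denotes the concentration required for 50% inhibition of growth.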 Calls of active or inactive are those of the source. Rule as the data show it: active = GI50 up to about 1.1 µM and inactive = higher.

Assays:
Assay in all cases: inhibition of tumour cell growth, NCI panel, 48 h
DMS-273 = test system: DMS-273
SNB-75 = test system: SNB-75
NCI-H460 = test system: NCI-H460
NCI-H23 = test system: NCI-H23
HT-29 = test system: HT-29
OVCAR-4 = test system: OVCAR-4
COLO 205 = test system: COLO 205
UO-31 = test system: UO-31
SNB-19 = test system: SNB-19
LXFL 529 = test system: LXFL 529
U-251 = test system: U-251
SK-MEL-5 = test system: SK-MEL-5
SF-295 = test system: SF-295
Malme-3M = test system: Malme-3M
HOP-18 = test system: HOP-18
EKVX = test system: EKVX
SN12C = test system: SN12C
A498 = test system: A498
SK-OV-3 = test system: SK-OV-3
M14 = test system: M14
HOP-92 = test system: HOP-92
M19-MEL = test system: M19-MEL
CCRF-CEM = test system: CCRF-CEM
OVCAR-5 = test system: OVCAR-5
CAKI-1 = test system: CAKI-1
SF-268 = test system: SF-268
NCI-H522 = test system: NCI-H522
SW-620 = test system: SW-620
OVCAR-3 = test system: OVCAR-3
UACC-62 = test system: UACC-62
786-0 = test system: 786-0
SF-539 = test system: SF-539
A549 = test system: A549
UACC-257 = test system: UACC-257
IGROV-1 = test system: IGROV-1
ACHN = test system: ACHN
SK-MEL-2 = test system: SK-MEL-2
KM12 = test system: KM12
RXF 393 = test system: RXF 393
RPMI-8226 = test system: RPMI-8226
K562 = test system: K562
HCT-15 = test system: HCT-15
NCI-H226 = test system: NCI-H226
KM-20L2 = test system: KM-20L2
TK-10 = test system: TK-10
MOLT-4 = test system: MOLT-4
HL-60 = test system: HL-60
SK-MEL-28 = test system: SK-MEL-28
XF498 = test system: XF498
RXF 631 = test system: RXF 631
OVCAR-8 = test system: OVCAR-8
LOX IMVI = test system: LOX IMVI
DLD-1 = test system: DLD-1

Compound: O=C(O)CN(c1ccccc1)S(=O)(=O)c1ccccc1[N+](=O)[O-]
- GI50 (DMS-273): > 100 µM (inactive)
- GI50 (SNB-75): > 100 µM (inactive)
- GI50 (NCI-H460): > 100 µM (inactive)
- GI50 (NCI-H23): > 100 µM (inactive)
- GI50 (HT-29): > 100 µM (inactive)
- GI50 (OVCAR-4): > 100 µM (inactive)
- GI50 (COLO 205): > 100 µM (inactive)
- GI50 (UO-31): > 100 µM (inactive)
- GI50 (SNB-19): > 100 µM (inactive)
- GI50 (LXFL 529): > 100 µM (inactive)
- GI50 (U-251): > 100 µM (inactive)
- GI50 (SK-MEL-5): > 100 µM (inactive)
- GI50 (SF-295): > 100 µM (inactive)
- GI50 (Malme-3M): > 100 µM (inactive)
- GI50 (HOP-18): > 100 µM (inactive)
- GI50 (EKVX): > 100 µM (inactive)
- GI50 (SN12C): > 100 µM (inactive)
- GI50 (A498): > 100 µM (inactive)
- GI50 (SK-OV-3): > 100 µM (inactive)
- GI50 (M14): > 100 µM (inactive)
- GI50 (HOP-92): > 100 µM (inactive)
- GI50 (M19-MEL): > 100 µM (inactive)
- GI50 (CCRF-CEM): > 100 µM (inactive)
- GI50 (OVCAR-5): > 100 µM (inactive)
- GI50 (CAKI-1): > 100 µM (inactive)
- GI50 (SF-268): > 100 µM (inactive)
- GI50 (NCI-H522): > 100 µM (inactive)
- GI50 (SW-620): > 100 µM (inactive)
- GI50 (OVCAR-3): > 100 µM (inactive)
- GI50 (UACC-62): > 100 µM (inactive)
- GI50 (786-0): > 100 µM (inactive)
- GI50 (SF-539): > 100 µM (inactive)
- GI50 (A549): > 100 µM (inactive)
- GI50 (UACC-257): > 100 µM (inactive)
- GI50 (IGROV-1): > 100 µM (inactive)
- GI50 (ACHN): > 100 µM (inactive)
- GI50 (SK-MEL-2): > 100 µM (inactive)
- GI50 (KM12): > 100 µM (inactive)
- GI50 (RXF 393): > 100 µM (inactive)
- GI50 (RPMI-8226): > 100 µM (inactive)
- GI50 (K562): > 10 µM (inactive)
- GI50 (HCT-15): > 100 µM
- GI50 (NCI-H226): > 100 µM (inactive)
- GI50 (KM-20L2): > 100 µM (inactive)
- GI50 (TK-10): > 100 µM (inactive)
- GI50 (MOLT-4): > 100 µM (inactive)
- GI50 (HL-60): > 100 µM (inactive)
- GI50 (SK-MEL-28): > 100 µM (inactive)
- GI50 (XF498): > 100 µM (inactive)
- GI50 (RXF 631): > 100 µM (inactive)
- GI50 (OVCAR-8): > 100 µM (inactive)
- GI50 (LOX IMVI): > 100 µM (inactive)
- GI50 (DLD-1): > 100 µM (inactive)
